{
  "source": "ChEMBL document CHEMBL3044820",
  "about": "“Evaluation of Benzenesulfonanilide Derivatives for the Control of Crucifers Clubroot” (1996)",
  "key": {"Plasmodiophora brassicae [1]": {"system": "Plasmodiophora brassicae", "experiment": "Fungicidal activity against clubroot disease causing Plasmodiophora brassicae infested Brassica campestris under greenhouse condition assessed as disease incidence at 4 kg a.i/ha treated to soil measured after 40 to 50 days", "format": "functional"}, "Plasmodiophora brassicae [2]": {"system": "Plasmodiophora brassicae", "experiment": "Fungicidal activity against clubroot disease causing Plasmodiophora brassicae infested Brassica campestris under greenhouse condition assessed as disease incidence at 2 kg a.i/ha treated to soil measured after 40 to 50 days", "format": "functional"}},
  "data": [
    {"smiles": "O=[N+]([O-])c1ccc(NS(=O)(=O)c2ccccc2)c(Cl)c1", "values": [
      {"measurement": "Activity", "setting": "Plasmodiophora brassicae [1]", "value": ">91", "unit": "%"},
      {"measurement": "Activity", "setting": "Plasmodiophora brassicae [2]", "value": 0, "unit": "%"}
    ]},
    {"smiles": "Cc1ccc(S(=O)(=O)Nc2ccc(F)cc2)cc1", "values": [
      {"measurement": "Activity", "setting": "Plasmodiophora brassicae [1]", "value": 0, "unit": "%"}
    ]},
    {"smiles": "O=[N+]([O-])c1ccc(NS(=O)(=O)c2ccccc2[N+](=O)[O-])cc1", "values": [
      {"measurement": "Activity", "setting": "Plasmodiophora brassicae [1]", "value": 51, "unit": "%"},
      {"measurement": "Activity", "setting": "Plasmodiophora brassicae [2]", "value": 0, "unit": "%"}
    ]},
    {"smiles": "O=[N+]([O-])c1cccc(S(=O)(=O)Nc2ccc([N+](=O)[O-])cc2Cl)c1", "values": [
      {"measurement": "Activity", "setting": "Plasmodiophora brassicae [1]", "value": 71, "unit": "%"},
      {"measurement": "Activity", "setting": "Plasmodiophora brassicae [2]", "value": 26, "unit": "%"}
    ]},
    {"smiles": "Cc1ccc([N+](=O)[O-])cc1NS(=O)(=O)c1ccc(Cl)c([N+](=O)[O-])c1", "values": [
      {"measurement": "Activity", "setting": "Plasmodiophora brassicae [1]", "value": 0, "unit": "%"}
    ]},
    {"smiles": "COc1ccc([N+](=O)[O-])cc1NS(=O)(=O)c1ccccc1[N+](=O)[O-]", "values": [
      {"measurement": "Activity", "setting": "Plasmodiophora brassicae [1]", "value": 0, "unit": "%"}
    ]},
    {"smiles": "COc1ccc([N+](=O)[O-])cc1NS(=O)(=O)c1ccc([N+](=O)[O-])cc1", "values": [
      {"measurement": "Activity", "setting": "Plasmodiophora brassicae [1]", "value": 0, "unit": "%"}
    ]},
    {"smiles": "Cc1ccc(S(=O)(=O)Nc2ccc(Br)cc2)cc1", "values": [
      {"measurement": "Activity", "setting": "Plasmodiophora brassicae [1]", "value": 0, "unit": "%"}
    ]},
    {"smiles": "O=[N+]([O-])c1ccc(NS(=O)(=O)c2ccc(Cl)cc2)c(Cl)c1", "values": [
      {"measurement": "Activity", "setting": "Plasmodiophora brassicae [1]", "value": ">91", "unit": "%"},
      {"measurement": "Activity", "setting": "Plasmodiophora brassicae [2]", "value": ">91", "unit": "%"}
    ]},
    {"smiles": "O=[N+]([O-])c1ccc(NS(=O)(=O)c2ccc(Cl)c(Cl)c2)c(Cl)c1", "values": [
      {"measurement": "Activity", "setting": "Plasmodiophora brassicae [1]", "value": ">91", "unit": "%"},
      {"measurement": "Activity", "setting": "Plasmodiophora brassicae [2]", "value": 26, "unit": "%"}
    ]},
    {"smiles": "O=[N+]([O-])c1cc(Cl)c(NS(=O)(=O)c2ccccc2)c(Cl)c1", "values": [
      {"measurement": "Activity", "setting": "Plasmodiophora brassicae [1]", "value": ">91", "unit": "%"},
      {"measurement": "Activity", "setting": "Plasmodiophora brassicae [2]", "value": 0, "unit": "%"}
    ]},
    {"smiles": "Cc1cc([N+](=O)[O-])ccc1NS(=O)(=O)c1ccc(Cl)cc1", "values": [
      {"measurement": "Activity", "setting": "Plasmodiophora brassicae [1]", "value": ">91", "unit": "%"},
      {"measurement": "Activity", "setting": "Plasmodiophora brassicae [2]", "value": 0, "unit": "%"}
    ]},
    {"smiles": "Cc1ccc(C)c(S(=O)(=O)Nc2ccc([N+](=O)[O-])cc2C)c1", "values": [
      {"measurement": "Activity", "setting": "Plasmodiophora brassicae [1]", "value": ">91", "unit": "%"},
      {"measurement": "Activity", "setting": "Plasmodiophora brassicae [2]", "value": 26, "unit": "%"}
    ]},
    {"smiles": "O=S(=O)(Nc1ccc(C(F)(F)F)cc1)c1cccc(C(F)(F)F)c1", "values": [
      {"measurement": "Activity", "setting": "Plasmodiophora brassicae [1]", "value": 0, "unit": "%"}
    ]},
    {"smiles": "N#Cc1cccc(S(=O)(=O)Nc2ccc(Cl)cc2Cl)c1", "values": [
      {"measurement": "Activity", "setting": "Plasmodiophora brassicae [1]", "value": 0, "unit": "%"}
    ]},
    {"smiles": "O=S(=O)(Nc1ccccc1Cl)c1cc(C(F)(F)F)ccc1Cl", "values": [
      {"measurement": "Activity", "setting": "Plasmodiophora brassicae [1]", "value": 0, "unit": "%"}
    ]},
    {"smiles": "Cc1ccc(S(=O)(=O)Nc2ccc(C(F)(F)F)cc2Cl)cc1", "values": [
      {"measurement": "Activity", "setting": "Plasmodiophora brassicae [1]", "value": 51, "unit": "%"},
      {"measurement": "Activity", "setting": "Plasmodiophora brassicae [2]", "value": 0, "unit": "%"}
    ]},
    {"smiles": "N#Cc1cccc(S(=O)(=O)Nc2ccc(C(F)(F)F)cc2Cl)c1", "values": [
      {"measurement": "Activity", "setting": "Plasmodiophora brassicae [1]", "value": 51, "unit": "%"},
      {"measurement": "Activity", "setting": "Plasmodiophora brassicae [2]", "value": 0, "unit": "%"}
    ]},
    {"smiles": "N#Cc1ccc(NS(=O)(=O)c2cccc(C(F)(F)F)c2)cc1", "values": [
      {"measurement": "Activity", "setting": "Plasmodiophora brassicae [1]", "value": 0, "unit": "%"}
    ]},
    {"smiles": "N#Cc1ccc(NS(=O)(=O)c2ccc(Cl)c(Cl)c2)cc1", "values": [
      {"measurement": "Activity", "setting": "Plasmodiophora brassicae [1]", "value": 0, "unit": "%"}
    ]},
    {"smiles": "COC(=O)c1ccc(NS(=O)(=O)c2cccc(C(F)(F)F)c2)cc1", "values": [
      {"measurement": "Activity", "setting": "Plasmodiophora brassicae [1]", "value": 0, "unit": "%"}
    ]},
    {"smiles": "CCOC(=O)c1ccc(NS(=O)(=O)c2ccc(Cl)cc2)c(Cl)c1", "values": [
      {"measurement": "Activity", "setting": "Plasmodiophora brassicae [1]", "value": 0, "unit": "%"}
    ]},
    {"smiles": "COC(=O)c1ccc(NS(=O)(=O)c2ccc(Cl)c(C(F)(F)F)c2)c(Cl)c1", "values": [
      {"measurement": "Activity", "setting": "Plasmodiophora brassicae [1]", "value": 0, "unit": "%"}
    ]},
    {"smiles": "COC(=O)c1ccc(NS(=O)(=O)c2ccc(Cl)c(Cl)c2)c(Cl)c1", "values": [
      {"measurement": "Activity", "setting": "Plasmodiophora brassicae [1]", "value": 0, "unit": "%"}
    ]},
    {"smiles": "CN(C)C(=O)c1ccc(NS(=O)(=O)c2cccc(C(F)(F)F)c2)cc1", "values": [
      {"measurement": "Activity", "setting": "Plasmodiophora brassicae [1]", "value": 0, "unit": "%"}
    ]},
    {"smiles": "CN(C)C(=O)c1ccc(NS(=O)(=O)c2cccc(C(F)(F)F)c2)c(Cl)c1", "values": [
      {"measurement": "Activity", "setting": "Plasmodiophora brassicae [1]", "value": 0, "unit": "%"}
    ]},
    {"smiles": "CN(C)C(=O)c1ccc(NS(=O)(=O)c2ccc(Cl)c(Cl)c2)c(Cl)c1", "values": [
      {"measurement": "Activity", "setting": "Plasmodiophora brassicae [1]", "value": 0, "unit": "%"}
    ]},
    {"smiles": "Cc1ccc(NS(=O)(=O)c2ccc(C)c([N+](=O)[O-])c2)c([N+](=O)[O-])c1", "values": [
      {"measurement": "Activity", "setting": "Plasmodiophora brassicae [1]", "value": 0, "unit": "%"}
    ]},
    {"smiles": "Cc1ccc(NS(=O)(=O)c2ccc([N+](=O)[O-])cc2)c([N+](=O)[O-])c1", "values": [
      {"measurement": "Activity", "setting": "Plasmodiophora brassicae [1]", "value": 0, "unit": "%"}
    ]},
    {"smiles": "Cc1ccc(S(=O)(=O)Nc2cccc([N+](=O)[O-])c2)cc1[N+](=O)[O-]", "values": [
      {"measurement": "Activity", "setting": "Plasmodiophora brassicae [1]", "value": 0, "unit": "%"}
    ]},
    {"smiles": "O=[N+]([O-])c1cccc(NS(=O)(=O)c2ccccc2[N+](=O)[O-])c1", "values": [
      {"measurement": "Activity", "setting": "Plasmodiophora brassicae [1]", "value": 0, "unit": "%"}
    ]},
    {"smiles": "O=[N+]([O-])c1cccc(NS(=O)(=O)c2cccc([N+](=O)[O-])c2)c1", "values": [
      {"measurement": "Activity", "setting": "Plasmodiophora brassicae [1]", "value": 0, "unit": "%"}
    ]},
    {"smiles": "Cc1ccc(S(=O)(=O)Nc2ccc(F)c([N+](=O)[O-])c2)cc1[N+](=O)[O-]", "values": [
      {"measurement": "Activity", "setting": "Plasmodiophora brassicae [1]", "value": 51, "unit": "%"},
      {"measurement": "Activity", "setting": "Plasmodiophora brassicae [2]", "value": 26, "unit": "%"}
    ]},
    {"smiles": "Cc1ccc([N+](=O)[O-])cc1NS(=O)(=O)c1ccc(C)c([N+](=O)[O-])c1", "values": [
      {"measurement": "Activity", "setting": "Plasmodiophora brassicae [1]", "value": 0, "unit": "%"}
    ]},
    {"smiles": "COc1ccc([N+](=O)[O-])cc1NS(=O)(=O)c1cccc([N+](=O)[O-])c1", "values": [
      {"measurement": "Activity", "setting": "Plasmodiophora brassicae [1]", "value": 0, "unit": "%"}
    ]},
    {"smiles": "Cc1ccc([N+](=O)[O-])cc1NS(=O)(=O)c1ccc([N+](=O)[O-])cc1", "values": [
      {"measurement": "Activity", "setting": "Plasmodiophora brassicae [1]", "value": 0, "unit": "%"}
    ]},
    {"smiles": "O=[N+]([O-])c1ccc(S(=O)(=O)Nc2cccc([N+](=O)[O-])c2)cc1", "values": [
      {"measurement": "Activity", "setting": "Plasmodiophora brassicae [1]", "value": 0, "unit": "%"}
    ]}
  ]
}
